From publication PMC3581553, “New Approaches of PARP-1 Inhibitors in Human Lung Cancer Cells and Cancer Stem-Like Cells by Some Selected Anthraquinone-Derived Small Molecules” (PLoS ONE, 2013) come the findings set out here.

Like-named read-outs stand apart in the source and are kept apart here.

One assay relates to HEL299 cells. The assay is described as follows: MTT cytotoxicity assay, HEL299 normal fibroblasts. Type of assay: cell-based. The conditions noted are these: Homo sapiens, HEL 299, 48 h of drug exposure. As for the experimental part: (§1) Non-small cell lung cancer cells A549 and Oct-4- and Nanog-overexpressed A549 clone (clone #3; A3), presented the properties of cancer stem-like cells, as well as epithelial-mesenchymal transdifferentiation, according to our previous study. They were grown in the same conditions as RPMI 1640 media supplemented with 10% fetal bovine serum (FBS), 100 units/mL penicillin, […] streptomycin, 1 mM sodium pyruvate, 2 mM l-glutamine and 1% non-essential amino acid (NEAA) in a humidified atmosphere with 5% CO2 at 37°C. Normal fibroblast cells HEL299 from American Type Culture Collection (ATCC) were grown in MEM media supplemented with 10% FBS, 100 units/mL penicillin, […] streptomycin, 1 mM sodium pyruvate, 2 mM l-glutamine and 1% NEAA, in a humidified atmosphere with 5% CO2 at 37°C.
(§2) The tetrazolium reagent (MTT; 3-(4,5-dimethylthiazol-2-yl)-2,5-diphenyl-tetrazolium bromide, USB) was designed to yield a colored formazan upon metabolic reduction by viable cells, [61]. Approximately 5×10^4 cells were plated onto each well of a 24-well plate and incubated in 5% CO2 at 37°C for 24 hours. To assess the in vitro cytotoxicity, each compound was dissolved in DMSO and prepared immediately before the experiments and then was diluted into the complete medium before being added to cell cultures. Test compounds were then added to the culture medium in various designated concentrations. After 48 hours, an amount of 100 µl of MTT was added to each well, and the samples were incubated at 37°C for 2 h. 100 µl DMSO was added to each well. The absorbency at 560 nm and reference absorbency at 670 nm were measured using an ELISA reader.

The next assay has as its system A549 cells. The experiment in a line: MTT cytotoxicity assay, A549 cells. Type of assay: cell-based. The settings on record: Homo sapiens, 48 h of drug exposure. The protocol:
as §1, §2

In assay [1] the test system is Oct-4- and Nanog-overexpressed A549 clone (A3). The assay is described as follows: MTT cytotoxicity assay, A3 cells. It counts as cell-based. The settings on record: Homo sapiens, 48 h of drug exposure. As for the experimental part: as §1, §2
A general note: Tetrazolium assays rely on reduction of a dye to a coloured formazan, in cell work by metabolically active cells.

Another assay deals with T1, PARP-1 (Homo sapiens, UniProt P09874).
T1 construct: purchased
The assay is described as follows: PARP inhibitory assay (histone-coated plate, colorimetric). It counts as biochemical. As for the experimental part: We used histone-coated 96-well plate treated with seven putative PARP-1 inhibitors or well-known PARP-1 inhibitors (3-AB), and then added PARP enzyme to each well. PARP enzyme catalyzes the NAD-dependent addition of poly (ADP-ribose) to histone, and diluted Strp-HRP could bind to PARylation histone. TACS-Sapphire™ yielded blue under the HRP existence. In order to systematically evaluate the potential anticancer activity, the compounds were tested for their cytotoxicity in vitro against 60 human cancer lines in the NCI anticancer drug screen as well as for dose response curves and telomerase activity. Cell growth was analyzed by the MTT assay, with differences between dose-response curves analyzed non-parametrically. Telomerase activity was detected by a modified version of the PCR-based assay and TRAP assay. […] However, PARP inhibitory effects had no difference at 1 and 10 µM. As described above, NSC746364, NSC746366 and NSC749232 show dose-dependency only at low concentrations. […] NSC747854 had dose-dependent PARP inhibitory manners at three different concentrations, and reached the maximum inhibitory effect of 86% at 10 µM (Table 4). […] In this investigation, we continued to focus our attention on the role of NSC747854 and to understand the basis of pharmacophore selectivity. Of particular note is the significant difference with these selected compounds, compared with that of 3-AB and PJ-34. […] An electron-rich aromatic ring system, including a carboxamide group, should have at least a hydrogen atom on the amide nitrogen. The amidinium moiety is known to contribute to the stabilization of DNA recognition element through electrostatic and hydrogen bonding interactions. Therefore, hydrogen bonds are frequently used as recognition elements due to their directionality and also due to being attractive factors to the biological activity (Figure 1). Many classes of drugs have substantial curvature, high DNA affinity, binding to the minor-groove or major-groove, interference with DNA-associated enzymes (e.g. telomerase), and Poly (ADP-ribose) polymerase, PARP. […] This approach greatly expands the utility of the substituents and related pharmacophore for the construction of drugs in general. Therefore, it is desirable to design PARP inhibitors in accordance with various anticancer parameters. It was first reported that anthraquinone analogues are potent human PARP inhibitors.
Strip wells were removed from the wrapper and 50 µl of 1X PARP Buffer was added to each well to rehydrate the histones. They were incubated at room temperature for 30 minutes. The 1X PARP buffer was removed from the wells by tapping the strip wells on paper towels. The serial dilutions of inhibitor of interest were added to appropriate wells. The diluted PARP enzyme (0.5 unit/well) was then added to the wells containing inhibitor. They were incubated for 10 minutes at room temperature. The PARP Enzyme-High Specific Activity (PARP-HAS) standard was serially diluted in cold micro-tubes with 1X PARP buffer such that the total activity was 1 unit/25 µl, 0.5 units/25 µl, 0.25 units/25 µl, 0.1 units/25 µl, 0.05 units/25 µl, 0.025 units/25 µl, and 0.01 units/25 µl, respectively. The 25 µl of each standard was added to triplicate wells. The 25 µl of 1X PARP cocktail were distributed into each well by using a multichannel pipettor. The final reaction volume is 50 µl. They were incubated along with the strip wells at room temperature for 60 minutes. The strip wells were washed 2 times with 1X PBS +0.1% Triton X-100 (200 µl/well) followed by 2 washes with 1X PBS. All the liquid was removed following each wash by tapping strip wells onto paper towels. The 50 µl diluted Strep-HRP were added per well. They were incubated at room temperature for 60 minutes. The strip wells were washed 2 times with 1X PBS +0.1% Triton X-100 (200 µl/well) followed by 2 washes with 1X PBS. All the liquid was removed following each wash by tapping strip wells onto paper towels. […]

A further assay has as its system NCI-H322M. The assay is described as follows: NCI-60 drug screen (SRB), NSCLC line NCI-H322M. It counts as cell-based, human. The protocol: (§3) As a primary screening, seven selected compounds were submitted to the National Cancer Institute (NCI) cell lines screen for evaluation of their anticancer activity. From the data analysis, it follows that approximately 95% of the actives from the 60 cell lines screen can be identified. The detailed methods used for the 60 cell lines panel have been described elsewhere [54]–[59]. Briefly, cellular protein levels were determined after 48 hours of drug exposure by SRB colorimetry. Through the use of a time zero cell control, the cell growth can be determined for each cell line thus allowing calculations of GI50, TGI, and LC50. Comparison to plates not exposed to drug permits determination of concentration and times of exposure conferring GI50, TGI, and LC50. […] By these criteria, seven compounds reported from our compounds bank were all active and passed on for evaluation in the full panel of 60 human tumor cell lines. The panel is organized into nine subpanels representing diverse histology: leukemia, melanoma, and cancers of the lung, colon, kidney, ovary, breast, prostate, and central nervous system.

For the next assay, the system named is A549/ATCC. The experiment in a line: NCI-60 drug screen (SRB), NSCLC line A549/ATCC. Type of assay: cell-based, human. As for the experimental part:
as §3

For the next assay, the system named is NCI-H522. The assay is described as follows: NCI-60 drug screen (SRB), NSCLC line NCI-H522. Type of assay: cell-based, human. The protocol:
as §3

A further assay concerns NCI-H226. The assay is described as follows: NCI-60 drug screen (SRB), NSCLC line NCI-H226. Type of assay: cell-based, human. The protocol:
as §3

The test system of a further assay is EKVX. The experiment in a line: NCI-60 drug screen (SRB), NSCLC line EKVX. Type of assay: cell-based, human. The protocol:
as §3

The subject of another assay is NCI-H460. The assay is described as follows: NCI-60 drug screen (SRB), NSCLC line NCI-H460. It counts as cell-based, human. As for the experimental part:
as §3

The test system of the next assay is HOP-62. The assay is described as follows: NCI-60 drug screen (SRB), NSCLC line HOP-62. Type of assay: cell-based, human. As for the experimental part:
as §3

The subject of a further assay is NCI-H23. The experiment in a line: NCI-60 drug screen (SRB), NSCLC line NCI-H23. Type of assay: cell-based, human. The protocol:
as §3

Where [2] appears, read: Homo sapiens, 48 hours drug exposure, SRB.
Setting [3] is: Homo sapiens, 48 hours drug exposure, SRB, read-out: GI50.
Where [4] appears, read: Homo sapiens, NCI in vitro 60-cell lines Drug Screen, read-out: -Log GI50 (converted).
Setting [5] is: Homo sapiens, 48 hours drug exposure, SRB, read-out: LC50 (the source's name).

T1 sequence (P09874 whole entry): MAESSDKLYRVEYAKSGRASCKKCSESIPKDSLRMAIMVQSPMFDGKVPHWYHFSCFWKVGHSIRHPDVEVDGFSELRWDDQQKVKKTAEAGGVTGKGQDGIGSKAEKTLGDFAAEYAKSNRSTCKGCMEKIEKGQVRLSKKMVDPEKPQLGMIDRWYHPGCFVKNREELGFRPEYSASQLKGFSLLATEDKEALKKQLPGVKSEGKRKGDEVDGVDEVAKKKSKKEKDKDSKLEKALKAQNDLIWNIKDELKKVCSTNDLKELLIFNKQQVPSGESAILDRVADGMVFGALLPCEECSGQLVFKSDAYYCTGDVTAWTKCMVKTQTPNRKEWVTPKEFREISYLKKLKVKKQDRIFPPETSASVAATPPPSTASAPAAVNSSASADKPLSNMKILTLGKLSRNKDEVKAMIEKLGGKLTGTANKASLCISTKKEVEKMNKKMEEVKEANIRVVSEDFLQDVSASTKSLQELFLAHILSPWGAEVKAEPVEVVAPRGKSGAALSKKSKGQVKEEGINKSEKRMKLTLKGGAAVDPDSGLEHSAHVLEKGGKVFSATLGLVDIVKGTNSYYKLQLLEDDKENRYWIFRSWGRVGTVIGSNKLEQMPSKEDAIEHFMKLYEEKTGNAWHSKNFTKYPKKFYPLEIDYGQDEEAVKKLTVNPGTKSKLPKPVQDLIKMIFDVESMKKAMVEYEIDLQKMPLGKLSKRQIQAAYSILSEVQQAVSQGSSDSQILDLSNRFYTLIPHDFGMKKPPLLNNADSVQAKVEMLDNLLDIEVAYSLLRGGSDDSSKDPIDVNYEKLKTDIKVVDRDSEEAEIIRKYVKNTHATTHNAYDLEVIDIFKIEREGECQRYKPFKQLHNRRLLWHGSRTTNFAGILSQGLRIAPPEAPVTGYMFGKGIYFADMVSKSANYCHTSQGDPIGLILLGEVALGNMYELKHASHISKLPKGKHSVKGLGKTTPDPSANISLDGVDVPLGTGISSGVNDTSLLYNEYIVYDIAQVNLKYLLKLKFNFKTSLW

Usually IC50 stands for the concentration at which inhibition is half-maximal. A lower IC50 goes with inhibition by little substance. For orientation: inhibition means the share of the control response that was lost under treatment. Low values mean little suppression, high ones strong suppression. In turn, `NC(=O)c1cccc(N)c1` [3-AB, 3-Aminobenzamide, reference compound] displayed an IC50 in the assay with HEL299 cells of 5.98 µM. In addition, the IC50 in the assay with A549 cells amounted to 13.1 µM. For the same molecule, inhibition in assay [1] was half-maximal at 10.8 µM (IC50). In addition, on PARP-1, the inhibition at 0.1 µM was 4%, the inhibition at 1 µM was found to be 10% and the inhibition at 10 µM amounted to 18%.

As usually defined, the TGI is the concentration at which net growth stops. Higher therefore signals less potent growth arrest. What is called LC50 is the concentration lethal to half of the exposed cells or organisms. In general, GI50 refers to the concentration that inhibits growth by half. For the molecule `O=C1c2ccccc2C(=O)c2c1ccc1nc(SCCN3CCCC3)[nH]c21` [NSC747515], the TGI is 21.4 µM in the assay on NCI-H322M (48 hours drug exposure, SRB); 15.0 µM with A549/ATCC (48 hours drug exposure, SRB); 32.5 µM with NCI-H522 (48 hours drug exposure, SRB); 36.6 µM in the assay with NCI-H226 (48 hours drug exposure, SRB); 26.5 µM in the assay on EKVX (48 hours drug exposure, SRB); 4.77 µM in the assay with NCI-H460 (48 hours drug exposure, SRB). The TGI in the assay on HOP-62 (48 hours drug exposure, SRB) was 33.2 µM; with NCI-H23 (48 hours drug exposure, SRB) it was 25.7 µM. The LC50 in the assay with NCI-H322M (setting [2]) was 47.3 µM; in the assay on EKVX (setting [2]) it was 62.4 µM. Besides, the GI50 in the assay on NCI-H322M (setting [3]) is 8.21 µM; with NCI-H322M (setting [4]), 8.13 µM; in the assay with A549/ATCC (setting [3]), 3.8 µM; with A549/ATCC (setting [4]), 3.8 µM; in the assay with NCI-H522 (setting [3]), 15.9 µM; in the assay on NCI-H522 (setting [4]), 15.8 µM. In addition, the GI50 in the assay with NCI-H226 (setting [3]) is 19.3 µM; with NCI-H226 (setting [4]), 19.5 µM; in the assay on EKVX (setting [3]) it was 11.2 µM; in the assay on EKVX (setting [4]) it was 11.2 µM; in the assay on NCI-H460 (setting [3]), 1.68 µM; in the assay on NCI-H460 (setting [4]) it was 1.7 µM. Further, the GI50 in the assay on HOP-62 (setting [3]) was 18 µM; in the assay on HOP-62 (setting [4]), 18.2 µM; in the assay with NCI-H23 (setting [3]), 11.6 µM; in the assay with NCI-H23 (setting [4]) it was 11.5 µM. Besides, the figures for the IC50 (in the assay with HEL299 cells; in the assay with A549 cells; in assay [1]) were 25.9 µM, 11.8 µM and 7.05 µM, respectively. For the same molecule, the LC50 (concentration killing 50% of cells) came to 41.8 µM in the assay on A549/ATCC (setting [2]) and 29.3 µM in the assay on NCI-H460 (setting [2]). Also, the CC50 in the assay on NCI-H522 (setting [5]) was determined as 66.2 µM; in the assay with NCI-H226 (setting [5]), 69.7 µM; in the assay with HOP-62 (setting [5]), 61.2 µM; with NCI-H23 (setting [5]), 56.9 µM. On PARP-1, this molecule showed an inhibition at 0.1 µM of 20%. Moreover, the inhibition at 1 µM against PARP-1 came to 22%. Besides, testing at 10 µM at PARP-1 gave an inhibition of 24%.

On to `CN(C)CC(=O)Nc1ccc2[nH]c(=O)c3ccccc3c2c1` [PJ-34, reference compound], for which the IC50 in the assay on HEL299 cells amounted to 14.7 µM; with A549 cells, 31.7 µM; in assay [1], 9.44 µM.
